Data: article PMC11359915, “Rattlesnake Crotalphine Analgesic Active on Tetrodotoxin-Sensitive Na^+ Current in Mouse Dorsal Root Ganglion Neurons” (Toxins, 2024)
pIC50: −log10 of the molar value.

Legend:
hNaV1.1 = settings: ref [22],[23],[24]; cited from earlier work
hNaV1.7 = settings: cited from earlier work
[1] = system: NaV1.7 component of the TTX-sensitive Na^+ current of DRG neurons; format: cell-based, adult mouse (Swiss, Mus musculus)
hNaV1.2–1.6 and hNaV1.8 = settings: ref [22],[23],[24]; cited from earlier work
DRG neurons = format: cell-based, adult mouse (Swiss, Mus musculus); settings: positive control, 0.1%, 5–75 min; mean ± S.E.M., n = 4
Method: The CHO epithelial cell line was cultured as previously described. Primary cultures of DRG neurons were performed using adult female Swiss mice (Mus musculus, 8–12 weeks of age and 25–32 g body weight), purchased from Janvier Elevage (Le Genest-Saint-Isle, France) and acclimatized at the CEA animal facility for at least 48 hr before the experiments. All experimental procedures on mice were permitted by the Animal Ethics Committee of the CEA and the French General Directorate for Research and Innovation (project APAFIS#26651-2020072011192542v1, authorized for E.B. on 20 July 2020 for 5 years). […]
Cell viability was quantified by propidium iodide and trypan blue dye exclusion assays. […] The percentage of viable cells (i.e., the number of non-fluorescent cells relative to the number of total cells) was determined using the ImageJ 1.53g software (National Institutes of Health, Bethesda, MD, USA). At the end of the experiments, the total fluorescence of each well (function of the amount of propidium iodide-positive dead cells) was measured using a CLARIOstar® Plus microplate reader (BMG Labtech, Champigny-Sur-Marne, France).
The data are expressed as the means ± standard error of the mean (S.E.M.) of n different experiments. […]

[2] = system: NaV channels and voltage-sensitive potassium (KV) channels; settings: initially NaV channels, later KV channels; ref [28],[29],[30],[31],[32]; cited from earlier work
Text: (§1) To the best of our knowledge, such an effect of the crotalid peptide on cell plasma membrane constituents has never been described in the literature. The simplest explanation is that crotalphine interacts also with lipid membrane constituents since interactions between gating modifier toxins and the lipid membranes surrounding the channel have been previously evidenced. It is therefore likely that, in addition to the Na^+ channel subtype NaV1.7, the crotalid peptide targets also a second cell plasma membrane component. Further experiments are still needed to identify this second me ...

certain cells = settings: ref [28],[29],[30],[31],[32]; cited from earlier work
Text: as §1

ProTx-II: tarantula venom peptide, a well-known selective inhibitor of the NaV1.7 channel subtype
pIC50 (hNaV1.1): 7.80 | pIC50 (hNaV1.7): 8.80 to 9.52 | decrease in the TTX-sensitive Na^+ current amplitude ([1]; 10 nM, n = 3, unpublished data): 79.2 ± 4.8% | pIC50 (hNaV1.2–1.6 and hNaV1.8): < 7.60

triton X-100
decrease in viability of DRG neurons (DRG neurons): 89.1 ± 1.7%

NC1=N[C@H](O)[C@H]2[C@H]3O[C@]4(O)O[C@@H]([C@@H](O)[C@@]2(N1)[C@@H]4O)[C@]3(O)CO [TTX, tetrodotoxin]
Na^+ current decreased to % of the initial peak amplitude [1]: 8.1 ± 5.1% | recovery of the current after washout [1]: 83.5 ± 4.5%

crotamine: the most abundant protein in the Crotalus durissus terrificus's venom (YKQCHKKGGHCFPKEKICLPPSSDFGKMDCRWRWKCCKKGSG; UniProt Q9PWF3 23-64, looked up)
effect on functioning of ionic channels [2]: alter the functioning of ionic channels | effect on cell viability (certain cells): decrease the viability of certain cells
